Test systems include 786-0; ACHN; CAKI-1; COLO 205; HCT-116; HL-60; HOP-92; KM12; M14; MCF7; MOLT-4; NCI-H23; NCI-H522; RPMI-8226; SF-295; SF-539; SK-MEL-2; SK-OV-3; T47D; Hs-578T.
What all share (test): NCI-60 cell line screen, 48 h

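Grown in 96-well plates, cells were treated for 48 hours with each compound at five concentrations. Insufficient inhibition: endpoint recorded as highest concentration tested. GI50 = concentration required for 50% inhibition of growth.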 Active and inactive are the calls of the source. Rule as the data show it: active = GI50 up to about 1.1 µM and inactive = higher.

Consider `COC(=O)C[C@@H]1C(C)(C)[C@@H]2O[C@@]34C[C@@H]2C(=O)[C@]1(C)[C@H]3CC[C@@]1(C)[C@H](c2ccoc2)OC(=O)C[C@]14O`, for which the GI50 with 786-0, in the experiment on ACHN, in the experiment with CAKI-1, in the experiment with COLO 205, in the experiment on HCT-116 and in the experiment on HL-60 was > 100 µM (inactive) each time. Also, the GI50 in the experiment with HOP-92, in the experiment with KM12, in the experiment with M14, in the experiment on MCF7, in the experiment with MOLT-4 and with NCI-H23 was > 100 µM (inactive) each time. The GI50 in the experiment on NCI-H522, with RPMI-8226, with SF-295, in the experiment on SF-539, in the experiment on SK-MEL-2 and in the experiment on SK-OV-3 was > 100 µM (inactive) in each case. Further, in the experiment on T47D, the GI50 was > 100 µM (inactive).
Regarding `Cc1nc2c(O)cc3c4c([nH]c3c2nc1C)C(=O)CCC4`, the GI50 with 786-0 was 5.85 µM (inactive); in the experiment with ACHN, 5.45 µM (inactive); in the experiment on COLO 205, 2.26 µM (inactive); in the experiment with HCT-116, 3.01 µM (inactive); in the experiment with HL-60 it was 3.72 µM (inactive); in the experiment with HOP-92 it was 11.2 µM (inactive). The GI50 in the experiment with Hs-578T is 2.62 µM (inactive); in the experiment on KM12, 3.69 µM (inactive); in the experiment on M14, 3.35 µM (inactive); in the experiment with MCF7, 0.875 µM (active); in the experiment with MOLT-4 it was 4.91 µM (inactive); in the experiment on NCI-H23 it was 6.58 µM (inactive). Also, the GI50 was 2.24 µM (inactive) with RPMI-8226; 5.08 µM (inactive) with SF-295; 2.85 µM (inactive) in the experiment on SF-539; 2.59 µM (inactive) in the experiment on SK-MEL-2; 3.76 µM (inactive) with SK-OV-3.
Regarding `CC(=O)OC[C@@H](OC(C)=O)[C@H](OC(C)=O)[C@@H]1OC(C)(C)O[C@@H]1C1SCCCS1`, the GI50 in the experiment with 786-0, in the experiment on ACHN, in the experiment with CAKI-1, in the experiment with COLO 205, with HCT-116 and with Hs-578T was > 100 µM (inactive) each time. The GI50 in the experiment with KM12, in the experiment with M14, with MCF7, with MOLT-4, in the experiment with NCI-H23 and in the experiment on NCI-H522 was > 100 µM (inactive) in each case. Besides, the GI50 with RPMI-8226, in the experiment on SF-295, in the experiment on SF-539, in the experiment on SK-MEL-2, in the experiment on SK-OV-3 and with T47D was > 100 µM (inactive) throughout.
Regarding `CC(C)(C)OC(=O)Nc1cc(-c2ccccc2)co1`, the GI50 in the experiment with 786-0 is > 100 µM (inactive); in the experiment with ACHN, > 100 µM (inactive); in the experiment with CAKI-1 it was > 100 µM (inactive); in the experiment on COLO 205 it was > 100 µM (inactive); in the experiment with HCT-116, 83.9 µM (inactive); in the experiment on HL-60, > 100 µM (inactive). In addition, the GI50 in the experiment with HOP-92 was 25.8 µM (inactive); in the experiment on KM12, > 100 µM (inactive); with M14, > 100 µM (inactive); in the experiment on MCF7 it was 83.8 µM (inactive); in the experiment on MOLT-4, 33.8 µM (inactive); in the experiment on NCI-H23, > 100 µM (inactive). For the same molecule, the GI50 was 17.3 µM (inactive) in the experiment with NCI-H522; 41.1 µM (inactive) in the experiment on RPMI-8226; > 100 µM (inactive) with SF-295; > 100 µM (inactive) with SF-539; 71.1 µM (inactive) with SK-MEL-2; > 100 µM (inactive) in the experiment with SK-OV-3. For the same molecule, in the experiment with T47D, the GI50 is 38.4 µM (inactive).
On to `CC(=O)/N=C1\NC(=O)/C(=C/c2ccccc2Cl)N1C`, for which the GI50 in the experiment with 786-0, in the experiment with ACHN, in the experiment with CAKI-1, with COLO 205, with HCT-116 and with HL-60 was > 100 µM (inactive) each time. The GI50 with HOP-92, in the experiment on Hs-578T, in the experiment on KM12, in the experiment on M14, in the experiment with MCF7 and with MOLT-4 was > 100 µM (inactive) in each case. Also, the GI50 in the experiment on NCI-H23, in the experiment on NCI-H522, in the experiment with SF-295, in the experiment on SF-539, with SK-MEL-2 and in the experiment on SK-OV-3 was > 100 µM (inactive) in each case.
As for `CCOC(=O)/C=C1/Nc2cc(F)c(F)cc2NC1=O`, the GI50 in the experiment on 786-0, in the experiment with ACHN, with CAKI-1, in the experiment with COLO 205, with HCT-116 and with HL-60 was > 100 µM (inactive) throughout. Also, the GI50 in the experiment on HOP-92, with Hs-578T, with KM12, in the experiment on M14, in the experiment on MCF7 and with MOLT-4 was > 100 µM (inactive) each time. The GI50 with NCI-H23, in the experiment on RPMI-8226, in the experiment on SF-295, with SF-539, in the experiment with SK-MEL-2 and in the experiment on SK-OV-3 was > 100 µM (inactive) each time.
With `CCOc1ccc(-n2nnc3c(N)nc(N)nc32)cc1`, the GI50 is > 100 µM (inactive) in the experiment on 786-0; > 100 µM (inactive) in the experiment on ACHN; > 100 µM (inactive) in the experiment on CAKI-1; > 100 µM (inactive) in the experiment on COLO 205; > 100 µM (inactive) with HCT-116; > 10 µM (inactive) in the experiment with HL-60. For the same molecule, the GI50 in the experiment on HOP-92, in the experiment on KM12, in the experiment with M14, in the experiment on MCF7, in the experiment with MOLT-4 and with NCI-H23 was > 100 µM (inactive) each time. Moreover, the GI50 in the experiment on NCI-H522, with RPMI-8226, in the experiment with SF-295, with SF-539, in the experiment on SK-MEL-2 and in the experiment with SK-OV-3 was > 100 µM (inactive) throughout. In addition, the GI50 in the experiment on T47D is > 100 µM (inactive).
For the molecule `CCN(CC)C(=O)Cn1c2c(c3ccccc31)CCCC2`, the GI50 in the experiment on 786-0 was > 100 µM (inactive); with ACHN, 65.2 µM (inactive); with CAKI-1 it was 57 µM (inactive); in the experiment with COLO 205 it was > 100 µM (inactive); in the experiment on HCT-116 it was 40.9 µM (inactive); with HL-60, 45.2 µM (inactive). The GI50 with HOP-92 was > 100 µM (inactive); with Hs-578T, 24.5 µM (inactive); in the experiment on M14, > 100 µM (inactive); in the experiment on MCF7, > 100 µM (inactive); in the experiment on NCI-H23, 45.4 µM (inactive); with RPMI-8226, 56.8 µM (inactive). Besides, the GI50 in the experiment on SF-295 is 49.8 µM (inactive); with SF-539, 47.2 µM (inactive); in the experiment on SK-MEL-2, > 100 µM (inactive); in the experiment on SK-OV-3 it was > 100 µM (inactive).
As to `Cc1cc(C)nc(NC(=S)Nc2cccc(Cl)c2)c1`, the GI50 in the experiment on 786-0 is > 48.5 µM (inactive); in the experiment on ACHN, 28.1 µM (inactive); with CAKI-1 it was 20.3 µM (inactive); in the experiment with COLO 205 it was > 80.9 µM (inactive); in the experiment with HCT-116, > 100 µM (inactive); with HL-60, > 100 µM (inactive). Further, the GI50 in the experiment with Hs-578T, with KM12, in the experiment with M14, in the experiment on MOLT-4, with NCI-H23 and with RPMI-8226 was > 100 µM (inactive) each time. For the same molecule, the GI50 in the experiment on SF-295 was > 100 µM (inactive); in the experiment with SF-539, > 100 µM (inactive); in the experiment with SK-MEL-2, > 100 µM (inactive); in the experiment with SK-OV-3, > 100 µM (inactive); in the experiment with T47D it was > 88.3 µM (inactive).
For the molecule `COC(=O)[C@@]12CC3CN(Cc4c1[nH]c1ccccc41)C2CC3=O`, the GI50 in the experiment with 786-0, with ACHN, in the experiment on CAKI-1, in the experiment with COLO 205, in the experiment on HCT-116 and with HL-60 was > 100 µM (inactive) throughout. Moreover, the GI50 in the experiment with HOP-92 is 26.7 µM (inactive); with KM12 it was > 100 µM (inactive); in the experiment with M14, > 100 µM (inactive); in the experiment with MCF7 it was > 100 µM (inactive); with MOLT-4 it was > 100 µM (inactive); in the experiment on NCI-H23, > 100 µM (inactive). Besides, the GI50 in the experiment with NCI-H522, in the experiment on RPMI-8226, in the experiment on SF-295, in the experiment with SF-539, with SK-MEL-2 and in the experiment on SK-OV-3 was > 100 µM (inactive) throughout. The GI50 in the experiment with T47D is > 100 µM (inactive).
Turning to `O=S(=O)(O)c1ccc2c(/N=N\c3ccc(F)cc3)c(O)c(S(=O)(=O)O)cc2c1`, the GI50 with 786-0 is > 100 µM (inactive); in the experiment with ACHN, > 100 µM (inactive); with CAKI-1, > 100 µM (inactive); with COLO 205 it was > 100 µM (inactive); in the experiment with HCT-116 it was > 100 µM (inactive); in the experiment with HL-60, < 0.01 µM (active). Further, the GI50 in the experiment on HOP-92, in the experiment with Hs-578T, in the experiment on KM12, in the experiment on M14, with MOLT-4 and in the experiment on NCI-H23 was > 100 µM (inactive) in each case. The GI50 with NCI-H522, with RPMI-8226, in the experiment on SF-295, with SK-MEL-2, in the experiment with SK-OV-3 and with T47D was > 100 µM (inactive) each time.

The values above are taken from ChEMBL document CHEMBL1201862, “PubChem BioAssay data set” (2004).
